Measurements taken from patent US6706663B2, “Herbicidal 3-heterocyclic substituted benzisothiazole and benzisoxazole compounds” (Wyeth, priority 2000, dated 2004).

Assays:
CYPIR (Cyperus iria) [1] = test: Flooded paddy, preemergence weed control; type: in vivo; settings: rated 3-4 weeks after treatment, 0-9 rating scale
In short: (§1)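 In this preemergence paddy assay, weed seeds or organs are sown at up to 0.5 cm in silt loam and covered by 1.5–3 cm of water for the full test period. After treatment the pots are kept in a greenhouse, and herbicidal effect is rated 0-9 visually against a control.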

[2] = tested on: ECHORC (Echinochloa oryzoides); test: Flooded paddy, preemergence weed control; type: in vivo, Echinochloa oryzoides (Ard.) Fritsch.; settings: rated 3-4 weeks after treatment, 0-9 rating scale
In short: as §1

[3] = tested on: MOOVA (Monochoria vaginalis); test: Flooded paddy, postemergence weed control; type: in vivo, Presl.; settings: postemergence weeds, rated 3-4 weeks after treatment
In short: (§2)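 Flood water 1.5-3 cm deep throughout; test compound dosed into it as 50/50 v/v aqueous/acetone, ~0.0320-0.2500 kg/ha ai. Plants: weeds 3-5 cm tall, rice seedlings 1.5-2.5 leaf. Read-out 3-4 wk later, visual 0-9 vs control.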

[4] = tested on: SAGPY (Sagittaria pygmaea); test: Flooded paddy, postemergence weed control; type: in vivo, L.; settings: postemergence weeds, rated 3-4 weeks after treatment
In short: as §2

[5] = tested on: GLXMAW (Soybean, Williams); test: Preemergence herbicidal evaluation; type: in vivo, Glycine max, (L.) Merr. cv Williams; settings: rated 4-5 weeks after treatment
[6] = tested on: TRZAWR (Wheat, Winter, cv Riband); test: Postemergence herbicidal evaluation; type: in vivo, Triticum aestivum; settings: postemergence
In short: (§3)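 Seedlings grown about two weeks in flats, sprayed, then kept under standard greenhouse care. Rated visually 4–5 weeks after treatment on a 0–9 scale (stand, vigour, malformation, size, chlorosis, overall appearance) relative to untreated control; repeat tests averaged.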

[7] = tested on: MOOVA (Monochoria vaginalis); test: Flooded paddy, preemergence weed control; type: in vivo, Presl.; settings: rated 3-4 weeks after treatment, 0-9 rating scale
In short: as §1

[8] = tested on: ECHORC (Echinochloa oryzoides); test: Flooded paddy, postemergence weed control; type: in vivo, Echinochloa oryzoides (Ard.) Fritsch.; settings: postemergence weeds, rated 3-4 weeks after treatment
In short: as §2

SETVI (Setaria viridis) [9] = test: Postemergence herbicidal evaluation; type: in vivo, (L.) Beau; settings: postemergence
In short: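 Seedlings grown about two weeks were sprayed with compound in 50/50 acetone/water containing 0.5% TWEEN 20, at about 0.0040 to 1.000 kg/ha via nozzle at 40 psi. Plants were kept under greenhouse conditions and visually rated on a 0-9 scale versus control four to five weeks after treatment; replicate tests averaged.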

CYPIR (Cyperus iria) [10] = test: Flooded paddy, postemergence weed control; type: in vivo; settings: postemergence weeds, rated 3-4 weeks after treatment
In short: as §2

[11] = tested on: CYPSE (Cyperus serotinus); test: Flooded paddy, postemergence weed control; type: in vivo, Rottb.; settings: postemergence weeds, rated 3-4 weeks after treatment
In short: as §2

[12] = tested on: IPOHE (Ipomoea hederacea); test: Postemergence herbicidal evaluation; type: in vivo, (L.) Jacq.; settings: postemergence
In short: as §3

ZEAMX (Corn, Field) = test: Preemergence herbicidal evaluation; type: in vivo, Zea mays, L.; settings: rated 4-5 weeks after treatment
[13] = tested on: ECHCG (Echinochloa crus-galli); test: Preemergence herbicidal evaluation; type: in vivo, (L.) Beau; settings: rated 4-5 weeks after treatment
In short: (§4)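 Applied before emergence as an aqueous acetone spray over seeded soil. Read-out: 0–9 visual rating covering plant stand, vigor, size, chlorosis, malformation and overall appearance compared with control, taken 4–5 weeks after spraying.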

SETVI (Setaria viridis) [14] = test: Preemergence herbicidal evaluation; type: in vivo, (L.) Beau; settings: rated 4-5 weeks after treatment
In short: as §4

ORYSAT (Rice, Tebonnet) = test: Flooded paddy, post-transplant and postemergence rice tolerance; type: in vivo, Oryza sativa, (L.) Tebonnet; settings: post-transplant rice, rated 3-4 weeks after treatment
In short: as §2

For `Cn1c(C(F)(F)F)cc(=O)n(-c2ccc3snc(-c4nccs4)c3c2)c1=O` [Compound 53, 1-methyl-3-[3-(2-thiazolyl)-1,2-benzisothiazol-5-yl]-6-(trifluoromethyl)uracil], the “herbicidal rating, CYPIR” value (CYPIR (Cyperus iria) [1]; rate 0.0080 kg/ha) was 9.0, the “herbicidal rating, CYPIR” value (CYPIR (Cyperus iria) [1]; rate 0.0320 kg/ha) was 8.3 and the “herbicidal rating, CYPIR” value (CYPIR (Cyperus iria) [1]; rate 0.1250 kg/ha) was 9.0. The “herbicidal rating, ECHORC” value ([2]; rate 0.0080 kg/ha) was 3.0, the “herbicidal rating, ECHORC” value ([2]; rate 0.0320 kg/ha) was 9.0 and the “herbicidal rating, ECHORC” value ([2]; rate 0.1250 kg/ha) was 9.0. The “herbicide rating (0-9) MOOVA” value ([3]; 0.0320 kg/ha into flood water) was 0.0, the “herbicide rating (0-9) MOOVA” value ([3]; 0.0620 kg/ha into flood water) was 0.0 and the “herbicide rating (0-9) MOOVA” value ([3]; 0.1250 kg/ha into flood water) was 2.0. For the same compound, the “herbicide rating (0-9) SAGPY” value ([4]; 0.0320 kg/ha into flood water) was 0.0, the “herbicide rating (0-9) SAGPY” value ([4]; 0.0620 kg/ha into flood water) was 0.0 and the “herbicide rating (0-9) SAGPY” value ([4]; 0.1250 kg/ha into flood water) was 0.0. For the same compound, the “Preemergence herbicidal rating GLXMAW” value ([5]; Rate 0.0620 kg/ha) was 1.0, the “Preemergence herbicidal rating GLXMAW” value ([5]; Rate 0.1250 kg/ha) was 2.5 and the “Preemergence herbicidal rating GLXMAW” value ([5]; Rate 0.2500 kg/ha) was 6.5. The TRZAWR herbicidal rating ([6]; rate 0.0320 kg/ha) was 3.3, the TRZAWR herbicidal rating ([6]; rate 0.0620 kg/ha) was 4.0 and the TRZAWR herbicidal rating ([6]; rate 0.1250 kg/ha) was 4.0. For the same compound, the “herbicidal rating, MOOVA” value ([7]; rate 0.0080 kg/ha) was 9.0, the “herbicidal rating, MOOVA” value ([7]; rate 0.0320 kg/ha) was 9.0 and the “herbicidal rating, MOOVA” value ([7]; rate 0.1250 kg/ha) was 9.0. For the same compound, the “herbicide rating (0-9) ECHORC” value ([8]; 0.0320 kg/ha into flood water) was 2.0, the “herbicide rating (0-9) ECHORC” value ([8]; 0.0620 kg/ha into flood water) was 7.0 and the “herbicide rating (0-9) ECHORC” value ([8]; 0.1250 kg/ha into flood water) was 8.0. The SETVI herbicidal rating (SETVI (Setaria viridis) [9]; rate 0.0320 kg/ha) was 2.5, the SETVI herbicidal rating (SETVI (Setaria viridis) [9]; rate 0.0620 kg/ha) was 5.5 and the SETVI herbicidal rating (SETVI (Setaria viridis) [9]; rate 0.1250 kg/ha) was 9.0. For the same compound, the “herbicide rating (0-9) CYPIR” value (CYPIR (Cyperus iria) [10]; 0.0320 kg/ha into flood water) was 0.0, the “herbicide rating (0-9) CYPIR” value (CYPIR (Cyperus iria) [10]; 0.1250 kg/ha into flood water) was 7.0 and the “herbicide rating (0-9) CYPSE” value ([11]; 0.0320 kg/ha into flood water) was 0.0. For the same compound, the “herbicide rating (0-9) CYPSE” value ([11]; 0.0620 kg/ha into flood water) was 8.0, the “herbicide rating (0-9) CYPSE” value ([11]; 0.1250 kg/ha into flood water) was 8.0 and the IPOHE herbicidal rating ([12]; rate 0.0320 kg/ha) was 8.0. The IPOHE herbicidal rating ([12]; rate 0.0620 kg/ha) was 9.0, the IPOHE herbicidal rating ([12]; rate 0.1250 kg/ha) was 9.0 and the “Preemergence herbicidal rating ZEAMX” value (ZEAMX (Corn, Field); Rate 0.0620 kg/ha) was 4.0. For the same compound, the “Preemergence herbicidal rating ZEAMX” value (ZEAMX (Corn, Field); Rate 0.1250 kg/ha) was 5.0, the “Preemergence herbicidal rating ZEAMX” value (ZEAMX (Corn, Field); Rate 0.2500 kg/ha) was 7.0 and the “Preemergence herbicidal rating ECHCG” value ([13]; Rate 0.0620 kg/ha) was 2.0. For the same compound, the “Preemergence herbicidal rating ECHCG” value ([13]; Rate 0.1250 kg/ha) was 4.5, the “Preemergence herbicidal rating ECHCG” value ([13]; Rate 0.2500 kg/ha) was 8.5 and the “Preemergence herbicidal rating SETVI” value (SETVI (Setaria viridis) [14]; Rate 0.0620 kg/ha) was 9.0. For the same compound, the “Preemergence herbicidal rating SETVI” value (SETVI (Setaria viridis) [14]; Rate 0.1250 kg/ha) was 9.0, the “Preemergence herbicidal rating SETVI” value (SETVI (Setaria viridis) [14]; Rate 0.2500 kg/ha) was 9.0 and the “herbicide rating (0-9) ORYSAT (rice tolerance)” value (from here on “herbicide rating (0-9) ORYSAT”) (ORYSAT (Rice, Tebonnet); 0.0320 kg/ha into flood water) was 2.0. The “herbicide rating (0-9) ORYSAT” value (ORYSAT (Rice, Tebonnet); 0.0620 kg/ha into flood water) was 4.0 and the “herbicide rating (0-9) ORYSAT” value (ORYSAT (Rice, Tebonnet); 0.1250 kg/ha into flood water) was 6.0.

`Cn1c(C(F)(F)F)cc(=O)n(-c2cc3c(C4OCCO4)nsc3cc2F)c1=O` [Compound 61, 3-[3-(1,3-dioxolan-2-yl)-6-fluoro-1,2-benzisothiazol-5-yl]-1-methyl-6-(trifluoromethyl)uracil] was tested, and the “herbicidal rating, CYPIR” value (CYPIR (Cyperus iria) [1]; rate 0.0080 kg/ha) was 8.7, the “herbicidal rating, CYPIR” value (CYPIR (Cyperus iria) [1]; rate 0.0320 kg/ha) was 9.0 and the “herbicidal rating, CYPIR” value (CYPIR (Cyperus iria) [1]; rate 0.1250 kg/ha) was 9.0. For the same compound, the “herbicidal rating, ECHORC” value ([2]; rate 0.0080 kg/ha) was 8.7, the “herbicidal rating, ECHORC” value ([2]; rate 0.0320 kg/ha) was 9.0 and the “herbicidal rating, ECHORC” value ([2]; rate 0.1250 kg/ha) was 9.0. The “herbicide rating (0-9) MOOVA” value ([3]; 0.0320 kg/ha into flood water) was 9.0, the “herbicide rating (0-9) MOOVA” value ([3]; 0.0620 kg/ha into flood water) was 9.0 and the “herbicide rating (0-9) MOOVA” value ([3]; 0.1250 kg/ha into flood water) was 9.0. For the same compound, the “herbicide rating (0-9) SAGPY” value ([4]; 0.0320 kg/ha into flood water) was 6.0, the “herbicide rating (0-9) SAGPY” value ([4]; 0.0620 kg/ha into flood water) was 8.0 and the “herbicide rating (0-9) SAGPY” value ([4]; 0.1250 kg/ha into flood water) was 9.0. The “Preemergence herbicidal rating GLXMAW” value ([5]; Rate 0.0002 kg/ha) was 0.0, the “Preemergence herbicidal rating GLXMAW” value ([5]; Rate 0.0160 kg/ha) was 9.0 and the “Preemergence herbicidal rating GLXMAW” value ([5]; Rate 0.0320 kg/ha) was 9.0. For the same compound, the TRZAWR herbicidal rating ([6]; rate 0.0320 kg/ha) was 5.5, the “herbicidal rating, MOOVA” value ([7]; rate 0.0080 kg/ha) was 8.5 and the “herbicidal rating, MOOVA” value ([7]; rate 0.0320 kg/ha) was 9.0. The “herbicidal rating, MOOVA” value ([7]; rate 0.1250 kg/ha) was 9.0, the “herbicide rating (0-9) ECHORC” value ([8]; 0.0320 kg/ha into flood water) was 9.0 and the “herbicide rating (0-9) ECHORC” value ([8]; 0.0620 kg/ha into flood water) was 9.0. For the same compound, the “herbicide rating (0-9) ECHORC” value ([8]; 0.1250 kg/ha into flood water) was 9.0, the SETVI herbicidal rating (SETVI (Setaria viridis) [9]; rate 0.0320 kg/ha) was 7.5 and the SETVI herbicidal rating (SETVI (Setaria viridis) [9]; rate 0.0620 kg/ha) was 8.0. The “herbicide rating (0-9) CYPIR” value (CYPIR (Cyperus iria) [10]; 0.0320 kg/ha into flood water) was 9.0, the “herbicide rating (0-9) CYPIR” value (CYPIR (Cyperus iria) [10]; 0.0620 kg/ha into flood water) was 9.0 and the “herbicide rating (0-9) CYPIR” value (CYPIR (Cyperus iria) [10]; 0.1250 kg/ha into flood water) was 9.0. For the same compound, the “herbicide rating (0-9) CYPSE” value ([11]; 0.0320 kg/ha into flood water) was 9.0, the “herbicide rating (0-9) CYPSE” value ([11]; 0.0620 kg/ha into flood water) was 9.0 and the “herbicide rating (0-9) CYPSE” value ([11]; 0.1250 kg/ha into flood water) was 9.0. The IPOHE herbicidal rating ([12]; rate 0.0320 kg/ha) was 9.0, the IPOHE herbicidal rating ([12]; rate 0.0620 kg/ha) was 9.0 and the “Preemergence herbicidal rating ZEAMX” value (ZEAMX (Corn, Field); Rate 0.0002 kg/ha) was 0.0. The “Preemergence herbicidal rating ZEAMX” value (ZEAMX (Corn, Field); Rate 0.0160 kg/ha) was 8.3, the “Preemergence herbicidal rating ZEAMX” value (ZEAMX (Corn, Field); Rate 0.0320 kg/ha) was 9.0 and the “Preemergence herbicidal rating ECHCG” value ([13]; Rate 0.0002 kg/ha) was 0.0. For the same compound, the “Preemergence herbicidal rating ECHCG” value ([13]; Rate 0.0160 kg/ha) was 9.0, the “Preemergence herbicidal rating ECHCG” value ([13]; Rate 0.0320 kg/ha) was 9.0 and the “Preemergence herbicidal rating SETVI” value (SETVI (Setaria viridis) [14]; Rate 0.0002 kg/ha) was 0.0. For the same compound, the “Preemergence herbicidal rating SETVI” value (SETVI (Setaria viridis) [14]; Rate 0.0160 kg/ha) was 9.0, the “Preemergence herbicidal rating SETVI” value (SETVI (Setaria viridis) [14]; Rate 0.0320 kg/ha) was 9.0 and the “herbicide rating (0-9) ORYSAT” value (ORYSAT (Rice, Tebonnet); 0.0320 kg/ha into flood water) was 9.0. For the same compound, the “herbicide rating (0-9) ORYSAT” value (ORYSAT (Rice, Tebonnet); 0.0620 kg/ha into flood water) was 9.0 and the “herbicide rating (0-9) ORYSAT” value (ORYSAT (Rice, Tebonnet); 0.1250 kg/ha into flood water) was 9.0.
